In ChEMBL document CHEMBL1201862, “PubChem BioAssay data set” (2004):
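The compound was tested at five concentrations on cells cultured in 96-well plates, with a 48-hour exposure period. GI50 is the concentration that inhibits growth by half.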 Active and inactive are the calls of the source. No stated cut-off is given here; in the data, active = GI50 up to about 1.1 µM and inactive = higher.

What was measured:
Assay in all cases: NCI anticancer screen, dose series, 48 h
[1] = system: A498
[2] = system: KM12
[3] = system: OVCAR-3
[4] = system: OVCAR-8
[5] = system: SW-620
[6] = system: K562
[7] = system: UACC-62
[8] = system: SNB-75
[9] = system: HCT-116
[10] = system: M14
[11] = system: MOLT-4
[12] = system: SK-MEL-5
[13] = system: 786-0
[14] = system: SK-MEL-28
[15] = system: SN12C
[16] = system: CAKI-1
[17] = system: NCI-H23
[18] = system: SF-295
[19] = system: NCI-H226

Row | Structure (SMILES) | GI50 [1] | GI50 [2] | GI50 [3] | GI50 [4] | GI50 [5] | GI50 [6] | GI50 [7] | GI50 [8] | GI50 [9] | GI50 [10] | GI50 [11] | GI50 [12] | GI50 [13] | GI50 [14] | GI50 [15] | GI50 [16] | GI50 [17] | GI50 [18] | GI50 [19]
1 | C[Si](C)(C)C1(Sc2ccccc2)SCCCS1 | 40.6 µM (inactive) | 64.7 µM (inactive) | 30.1 µM (inactive) | 33.8 µM (inactive) | 53.1 µM (inactive) | 31.1 µM (inactive) | 35 µM (inactive) | 37.8 µM (inactive) | 21.3 µM (inactive) | 49.8 µM (inactive) | 15.1 µM (inactive) | 72.9 µM (inactive) | 46.5 µM (inactive) | 43.3 µM (inactive) | 27 µM (inactive) | 54.6 µM (inactive) | 31.6 µM (inactive) | 54.3 µM (inactive) | –
2 | CC(C)(C)C(=O)O[C@H]1C=C[C@@H](O)[C@@H]2[C@H]1[C@@H]1C=C[C@H]2C1 | 20.3 µM (inactive) | 2.63 µM (inactive) | 19.7 µM (inactive) | 19 µM (inactive) | 42.7 µM (inactive) | 31.9 µM (inactive) | 9.79 µM (inactive) | 29.9 µM (inactive) | 29.6 µM (inactive) | 13.7 µM (inactive) | 13.4 µM (inactive) | – | 48.5 µM (inactive) | 18.5 µM (inactive) | 16.6 µM (inactive) | 71 µM (inactive) | 12.1 µM (inactive) | 44.5 µM (inactive) | –
3 | Cc1ccc2c(c1)C1(C)OC(CC(N)C1O)O2 (stereo not drawn) | – | > 100 µM (inactive) | > 100 µM (inactive) | > 100 µM (inactive) | > 100 µM (inactive) | > 100 µM (inactive) | > 100 µM (inactive) | 29.8 µM (inactive) | > 100 µM (inactive) | > 100 µM (inactive) | > 100 µM (inactive) | > 100 µM (inactive) | > 100 µM (inactive) | > 100 µM (inactive) | > 100 µM (inactive) | – | > 100 µM (inactive) | > 100 µM (inactive) | > 100 µM (inactive)
4 | CC#C[C@@]1(O)CCCCC1O (stereo partly drawn) | > 100 µM (inactive) | > 100 µM (inactive) | > 100 µM (inactive) | > 100 µM (inactive) | > 100 µM (inactive) | > 100 µM (inactive) | > 100 µM (inactive) | 66.8 µM (inactive) | > 100 µM (inactive) | > 100 µM (inactive) | > 100 µM (inactive) | > 100 µM (inactive) | > 100 µM (inactive) | > 100 µM (inactive) | > 100 µM (inactive) | – | > 100 µM (inactive) | > 100 µM (inactive) | > 100 µM (inactive)
5 | CCSCN(C)c1nc(N(C)C)nc(N(C)C)n1 | 47.8 µM (inactive) | 35.3 µM (inactive) | 38.3 µM (inactive) | 81.5 µM (inactive) | 35.9 µM (inactive) | 46.8 µM (inactive) | 40.4 µM (inactive) | 59 µM (inactive) | 54.7 µM (inactive) | 39.8 µM (inactive) | 46.8 µM (inactive) | 39.9 µM (inactive) | 36.7 µM (inactive) | 56.4 µM (inactive) | 77.6 µM (inactive) | 68.2 µM (inactive) | 33.6 µM (inactive) | 92.3 µM (inactive) | –
6 | Cc1ccc(SSc2ccc(C)cc2C(=O)O)c(C(=O)O)c1 | > 100 µM (inactive) | > 100 µM (inactive) | – | > 100 µM (inactive) | > 100 µM (inactive) | > 100 µM (inactive) | > 100 µM (inactive) | – | – | – | > 100 µM (inactive) | > 100 µM (inactive) | > 100 µM (inactive) | > 100 µM (inactive) | > 100 µM (inactive) | > 100 µM (inactive) | > 100 µM (inactive) | > 100 µM (inactive) | > 100 µM (inactive)
7 | COc1ccc(C(=O)O)c(Br)c1OCc1ccccc1 | > 100 µM (inactive) | > 100 µM (inactive) | > 100 µM (inactive) | > 100 µM (inactive) | > 100 µM (inactive) | > 100 µM (inactive) | > 100 µM (inactive) | > 100 µM (inactive) | > 100 µM (inactive) | > 100 µM (inactive) | > 100 µM (inactive) | > 100 µM (inactive) | > 100 µM (inactive) | > 100 µM (inactive) | 92.5 µM (inactive) | – | > 100 µM (inactive) | > 100 µM (inactive) | > 100 µM (inactive)
8 | COc1cccc2c1[C@H]1CO[C@H]3C4C[C@H](C(=O)O)C([C@@H](C2)N13)N4C (stereo partly drawn) | – | – | 1.38 µM (inactive) | – | 1.98 µM (inactive) | 1.47 µM (inactive) | 1.12 µM (inactive) | 1.48 µM (inactive) | 2.53 µM (inactive) | 4.99 µM (inactive) | 1.69 µM (inactive) | 1.88 µM (inactive) | 1.3 µM (inactive) | 2.1 µM (inactive) | 1.99 µM (inactive) | – | 1.79 µM (inactive) | 7.1 µM (inactive) | 1.29 µM (inactive)
9 | CC(=O)Oc1c2c(c(O)c3ccccc13)C(n1cnc3c(ncn3C3OC(CO)C4OC(C)(C)OC43)c1=N)CCC2 (stereo not drawn) | 17.3 µM (inactive) | 14.4 µM (inactive) | 14.5 µM (inactive) | 11.2 µM (inactive) | 15.3 µM (inactive) | 6.84 µM (inactive) | 13.9 µM (inactive) | 17.5 µM (inactive) | – | – | 11.1 µM (inactive) | 12.1 µM (inactive) | 14.5 µM (inactive) | 17.5 µM (inactive) | 18.1 µM (inactive) | 25.4 µM (inactive) | 16.8 µM (inactive) | 13.9 µM (inactive) | 23.3 µM (inactive)
10 | CC(C#N)c1cn(S(=O)(=O)c2ccccc2)c2ccccc12 (stereo not drawn) | – | 72.1 µM (inactive) | 53.1 µM (inactive) | 80.7 µM (inactive) | > 100 µM (inactive) | 39.8 µM (inactive) | 55.1 µM (inactive) | 8.95 µM (inactive) | 40.1 µM (inactive) | 33.7 µM (inactive) | 35.9 µM (inactive) | 16.2 µM (inactive) | > 100 µM (inactive) | 60.7 µM (inactive) | – | 34.6 µM (inactive) | 39.9 µM (inactive) | 34.4 µM (inactive) | 25.7 µM (inactive)
11 | COC1CC(OS(=O)(=O)c2ccc(C)cc2)C(OS(=O)(=O)c2ccc(C)cc2)C(COS(=O)(=O)c2ccc(C)cc2)O1 (stereo not drawn) | – | 52 µM (inactive) | 1.89 µM (inactive) | 1.82 µM (inactive) | 15.6 µM (inactive) | 23.9 µM (inactive) | 5.61 µM (inactive) | 0.535 µM (active) | 14.5 µM (inactive) | 5.22 µM (inactive) | > 100 µM (inactive) | 4.85 µM (inactive) | 1.6 µM (inactive) | 2.98 µM (inactive) | 3.96 µM (inactive) | 2.72 µM (inactive) | 2.92 µM (inactive) | 1.55 µM (inactive) | 3.23 µM (inactive)
12 | COc1cc(C=O)cc(O)c1O | – | > 100 µM (inactive) | > 100 µM (inactive) | > 100 µM (inactive) | > 100 µM (inactive) | > 100 µM (inactive) | 27.4 µM (inactive) | > 100 µM (inactive) | > 100 µM (inactive) | > 100 µM (inactive) | > 100 µM (inactive) | – | > 100 µM (inactive) | > 100 µM (inactive) | > 100 µM (inactive) | – | > 100 µM (inactive) | > 100 µM (inactive) | > 100 µM (inactive)
13 | Nc1ccc(C(=O)N/C(=C\C=C\c2ccco2)c2nc3c(O)nc(S)nc3[nH]2)cc1 | – | > 100 µM (inactive) | > 100 µM (inactive) | > 100 µM (inactive) | > 100 µM (inactive) | > 100 µM (inactive) | > 10 µM (inactive) | – | – | > 100 µM (inactive) | > 100 µM (inactive) | > 100 µM (inactive) | > 100 µM (inactive) | > 100 µM (inactive) | > 100 µM (inactive) | > 100 µM (inactive) | > 100 µM (inactive) | > 100 µM (inactive) | –
14 | O/N=C(\C(=N/O)Nc1ccc(-c2ccc(NC(=N/O)/C(=N\O)c3ccccc3)cc2)cc1)c1ccccc1 | 24.1 µM (inactive) | 19 µM (inactive) | 17.1 µM (inactive) | 21.4 µM (inactive) | 22.2 µM (inactive) | 18 µM (inactive) | 18.5 µM (inactive) | – | 18.7 µM (inactive) | 17.9 µM (inactive) | 17.3 µM (inactive) | 20.3 µM (inactive) | 21.5 µM (inactive) | – | 32.8 µM (inactive) | 22.4 µM (inactive) | 17.5 µM (inactive) | 18.6 µM (inactive) | 28.5 µM (inactive)
15 | COC(=O)C(=O)C(CC(=O)Nc1cccc(C(F)(F)F)c1)C(=O)OC (stereo not drawn) | > 100 µM (inactive) | – | – | > 100 µM (inactive) | > 100 µM (inactive) | > 100 µM (inactive) | > 100 µM (inactive) | > 100 µM (inactive) | > 100 µM (inactive) | > 100 µM (inactive) | > 100 µM (inactive) | > 100 µM (inactive) | > 100 µM (inactive) | > 100 µM (inactive) | > 100 µM (inactive) | > 100 µM (inactive) | > 100 µM (inactive) | – | > 100 µM (inactive)
16 | CCCCCc1cc(OC(=O)c2c(O)cc(OC)cc2CCCCC)cc(O)c1C(=O)O | 19.8 µM (inactive) | 17.3 µM (inactive) | – | 18.2 µM (inactive) | 18.3 µM (inactive) | 26.8 µM (inactive) | 14.5 µM (inactive) | 17.2 µM (inactive) | – | 20.4 µM (inactive) | 23.5 µM (inactive) | 14.8 µM (inactive) | 16.4 µM (inactive) | 17.1 µM (inactive) | 15.9 µM (inactive) | 19.1 µM (inactive) | 12.4 µM (inactive) | 16.8 µM (inactive) | –
